Reference: US10675266B2, “Compounds and methods for treating autism spectrum disorders” (BIOCODEX, priority 2008, dated 2020)

Key:
patients = experiment: Observation of autism symptoms in patients after initiation of treatment; format: in vivo, human
Text: This observation can be confirmed by studies in animal models that mimic characteristic features of autism such as the models described by Moy S S et al, Behav. Brain Res. 176:4, 2007 and McFarlane H G et al, Genes, Brain and Behavior, 1601:1, 2007.

animal models = details: several animal models; cited from earlier work
[1] = system: recombinant GABA-A receptors; details: cited from earlier work
[2] = doses 100, 200 and 300 mg/kg i.p.; from literature (Gasior 1999; Vincent 1991); cited from earlier work
C57 mice = experiment: Social investigatory behaviour of C57 test mice towards a juvenile DBA/2J stimulus mouse; format: in vivo
Procedure: (§1) The purpose of this study was to examine the effects of stiripentol on the social behavioural in BALB/c mice compared to C57BL/6J (C57) inbred mice. The social investigatory behaviour of mice was measured by the amount of time that the “test” mouse (BALB/c and C57 mice) engaged in social contact with the “stimulus” mouse (juvenile DBA/2J mice strain).
(§2) All male mice (BALB/c, C57 and DBA/2J) were purchased from the Charles River breeding (Les Oncins-France). BALB/c and C57 mice were 8 weeks of age upon arrival at the laboratory. They were housed in temperature-controlled rooms (22±2° C.), separately by strain, with 5 mice per polycarbonate cage (type “S” cage: 265 mm L×160 mm W×140 mm H) and provided with food (A04-SAFE, France) and tap water ad libitum. Behavioral testing was conducted during the light period of a 12-h light:12-h dark cycle (lights on at 7 a.m.). The mice were used for behavioural testing starting 5-7 days after arrival at the laboratory whereas juvenile DBA/2J mice were used at 3-weeks of age and arrived at the laboratory 5 days prior testing. The experiments were conducted in accordance with the European Recommendations (directive 86/609/ECC) for the care and use of laboratory animals.
(§3) The general procedure was conducted according to the protocol described by Fishkin and Winslow (1997) Psychopharmacology (Berl) 132:335-341 with slight modifications.
Twenty-four hours prior to testing, BALB/c and C57 mice were individually housed in clear cage (type “S” cage). […]
The juvenile DBA/2J mouse was placed into BALB/c or C57 mouse cage for a 10-min observation period. […] For each contact, an observer, sitting about 1 m from the cage; recorded the latency to the first contact (or approach) (in sec) towards the “stimulus” mouse and the time (in sec) that the “test” mouse spent in social investigatory behaviour. […]
(§4) All data represent the mean±standard error of mean (S.E.M.). Treatment effects on mean latency to the first contact and on mean duration of social investigation were analyzed with two-way analysis of variance (ANOVA) with the strain and the treatment as factors. […]

SMEI patients = details: cited from earlier work
BALB/c mice = experiment: Social investigatory behaviour of BALB/c test mice towards a juvenile DBA/2J stimulus mouse; format: in vivo; details: for duration of social contacts: 100, 200 and 300 mg/kg i.p. once daily for 5 days
Procedure: as §1, §2, §3
Twenty-four hours prior to testing, BALB/c and C57 mice were individually housed in clear cage (type “S” cage). Food and water remained freely available. Individual housing was provided firstly to permit resident male mice an opportunity to scent mark and habituate to their home cage and, secondly to heighten the motivation of “test” mice for social interaction. All the animals were allowed to acclimate to the test room (natural lighting) for at least 1 h prior to testing which was conducted between 9 a.m. and 3 p.m.
The juvenile DBA/2J mouse was placed into BALB/c or C57 mouse cage for a 10-min observation period. The DBA/2J mouse served as “stimulus” mouse for one BALB/c mouse and one C57BL mouse. For each contact, an observer, sitting about 1 m from the cage; recorded the latency to the first contact (or approach) (in sec) towards the “stimulus” mouse and the time (in sec) that the “test” mouse spent in social investigatory behaviour. Nosing, sniffing, pawing, grooming and close following of the “stimulus” mouse by the young adult mouse were considered to be signs of social investigation. […]
as §4

## CC(C)(C)C(O)/C=C/c1ccc2c(c1)OCO2 (racemic) [Stiripentol, 1-penten-3-ol, 1-(1,3-benzodioxol)-4,4-dimethyl]
patients
  autism symptoms: resolution of autism symptoms
Animal models
  anticonvulsant activity: has shown anticonvulsant activity
[1]; Fisher, Neuropharmacology 2009
  modulation of the GABA receptor: positive allosteric modulator
[1]; alpha subunit subtypes compared
  potentiation by subunit subtype: alpha 3 subtype showed the greatest potentiation
[2]
  adverse motor effects: devoid of any adverse motor effects
C57 mice; 300 mg/kg i.p. once daily for 5 days
  sedative effects: sedative effects in C57 mice began to appear
C57 mice; 300 mg/kg i.p. once daily for 5 days, FIG. 2
  duration of social contacts: significantly lowered
C57 mice; up to 300 mg/kg i.p. once daily for 5 days, FIG. 1
  latency to the first contact: without effects
SMEI patients; SMEI patients, 50 mg/kg/day
  response rate: high response rate
SMEI patients; two double blind controlled clinical trials (Chiron, Lancet 2000)
  efficacy in double blind controlled clinical trials: high efficacy
BALB/c mice; 100, 200, 300 mg/kg i.p. once daily for 5 days, last dose 60 min before testing, FIG. 1
  latency to the first contact: trend for decrease
BALB/c mice; FIG. 2
  duration of social contacts: increased duration of social contacts
BALB/c mice; FIG. 2, listed as stiripentol
  duration of social contacts: significantly increased
BALB/c mice; sub-chronic treatment 100, 200 or 300 mg/kg i.p. x 5 days
  sociability: enhanced the sociability
